Test results taken from patent US20060135483A1, “Oxygen/nitrogen heterocycle inhibitors of tyrosine phosphatases” (priority 2004, published 2006).

Target: T1, PTP-1B (Homo sapiens, UniProt P18031)
T1 construct: PTP-1B (purified, 1 mg/mL) as a 1:250 dilution
T1 sequence (P18031 1-321 limits assumed): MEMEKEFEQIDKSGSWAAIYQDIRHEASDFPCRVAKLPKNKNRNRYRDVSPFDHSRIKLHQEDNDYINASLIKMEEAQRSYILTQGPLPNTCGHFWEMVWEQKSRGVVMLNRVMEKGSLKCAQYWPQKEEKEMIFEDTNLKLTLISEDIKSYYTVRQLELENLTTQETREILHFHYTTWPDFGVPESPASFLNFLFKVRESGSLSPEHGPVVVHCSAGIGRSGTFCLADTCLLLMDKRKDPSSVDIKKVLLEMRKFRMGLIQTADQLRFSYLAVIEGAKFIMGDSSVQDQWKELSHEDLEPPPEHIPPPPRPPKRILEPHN
Assay: pNPP assay for tyrosine phosphatase inhibitory activity
Assay type: biochemical
Settings: pNPP substrate 10 mM, 30° C., 10 minutes, absorbance at 405 nm
Method: The compounds provided herein are evaluated for biological activity as inhibitors of PTP-1B using, for example, a pNPP assay. Such an assay can be used to screen compounds for tyrosine phosphatase inhibitory activity as shown in Example 39.
A 5× stock of pNPP (p-nitrophenol phosphate) substrate is prepared as 50 mM pNPP in assay buffer. Various tyrosine phosphatase solutions can be prepared as follows: • PTP-1B (purified, 1 mg/mL) as a 1:250 dilution (to a final concentration of 4:g/mL); • TC-PTP (NEB, 1000 units in 100:L) as a 1:50 dilution (to a final concentration of 2 U/10:L (4:g/mL)); • CD45 (Calbiochem, 20:g, 400 units in 100: L) as a 1 :50 dilution (to a final concentration of 0.8 U/10:L (4:g/mL)); • LAR (NEB, 1000 units in 200:L) as a 1:75 dilution (to a final concentration of 0.7 U/10:L (4:g/mL)); and • PTP-β (UBI, #14-350, 10,000 units, 40:g/571:L) as a 1:17.5 dilution (to a final concentration of 10 U/10:L (4:g/mL));
The compound to be tested is prepared as 1:16.7 and 1:50 dilutions from stock in a total volume of 1 00:M DMSO to give final concentrations of 626 and 200:M. The reaction mixtures are prepared in a 96-well microtiter plate (on ice) as 55:L assay buffer, 5:L of the diluted compound (to a final concentration of 31.3 and 10:M), 20:L of the pNPP substrate solution (to a final concentration of 10 mM) and 20:L PTPase in assay buffer. The reactants are mixed well, the plate placed in a water bath at 30° C. and incubated for 10 minutes. The reaction is then terminated by adding 1 OO:L of 2M K2CO3 per well, and the absorbance is measured at 405 nm by conventional means.
Unless otherwise indicated, this assay was used to determine activity for the selected compounds whose activity is recorded in Table 1 and Table 2.

Compound | IC50 (Table 1) | IC50 (Table 2)
O=C(O)c1ccc(CN(c2ccc(Cl)c(Cl)c2)c2nnc(-c3cccc(Oc4cccc(C(=O)O)c4)c3)o2)cc1 [Example 21] | 10000 to 100000 nM | –
COC(=O)c1cccc(Oc2cccc(-c3nnc(N(Cc4ccc(C(F)(F)P(=O)(O)O)cc4)c4ccc(Cl)c(Cl)c4)o3)c2)c1 [Example 22, 3-[3-(5-{(3,4-Dichloro-phenyl)-[4-(difluoro-phosphono-methyl)-benzyl]-amino}-[1,3,4]oxadiazol-2-yl)-phenoxy]-benzoic acid methyl ester] | 1000 to 10000 nM | –
O=C(O)c1cccc(Oc2cccc(-c3nnc(N(Cc4ccc(C(F)(F)P(=O)(O)O)cc4)c4ccc(Cl)c(Cl)c4)o3)c2)c1 [Example 23, 3-[3-(5-{(3,4-Dichloro-phenyl)-[4-(difluoro-phosphono-methyl)-benzyl]-amino}-[1,3,4]oxadiazol-2-yl)-phenoxy]-benzoic acid] | 1000 to 10000 nM | –
COC(=O)c1cccc(Oc2cccc(-c3nnc(N(Cc4ccc(C(F)(F)P(=O)(O)O)c(Br)c4)c4ccc(Cl)c(Cl)c4)o3)c2)c1 [Example 24, 3-(3-{5-[[3-Bromo-4-(difluoro-phosphono-methyl)-benzyl]-(3,4-dichloro-phenyl)-amino]-[1,3,4]oxadiazol-2-yl}-phenoxy)-benzoic acid methyl ester] | 500 to 1000 nM | –
O=C(O)c1cccc(Oc2cccc(-c3nnc(N(Cc4ccc(C(F)(F)P(=O)(O)O)c(Br)c4)c4ccc(Cl)c(Cl)c4)o3)c2)c1 [Example 25, 3-(3-{5-[[3-Bromo-4-(difluoro-phosphono-methyl)-benzyl]-(3,4-dichloro-phenyl)-amino]-[1,3,4]oxadiazol-2-yl}-phenoxy)-benzoic acid] | 100 to 500 nM | –
CN(Cc1ccc(C(F)(F)P(=O)(O)O)c(Br)c1)c1ncc(-c2ccc(-c3ccccc3C(=O)O)cc2)o1 [Example 26, 4′-{2-[[3-Bromo-4-(difluoro-phosphono-methyl)-benzyl]-methyl-amino]-oxazol-5-yl}-biphenyl-2-carboxylic acid] | – | 500 to 1000 nM
O=C(O)c1ccccc1-c1ccc(-c2cnc(N(Cc3ccc(C(F)(F)P(=O)(O)O)c(Br)c3)c3ccccc3)o2)cc1 [Example 27, 4′-{2-[[3-Bromo-4-(difluoro-phosphono-methyl)-benzyl]-phenyl-amino]-oxazol-5-yl}-biphenyl-2-carboxylic acid] | – | 100 to 500 nM
O=C(O)c1ccccc1-c1ccc(-c2cnc(N(Cc3ccc(C(F)(F)P(=O)(O)O)c(Br)c3)c3ccc(F)cc3)o2)cc1 [Example 28, 4′-{2-[[3-Bromo-4-(difluoro-phosphono-methyl)-benzyl]-(4-fluorophenyl)-amino]-oxazol-5-yl}-biphenyl-2-carboxylic acid] | – | 100 to 500 nM
O=C(O)c1ccccc1-c1ccc(-c2cnc(N(Cc3ccc(C(F)(F)P(=O)(O)O)c(Br)c3)c3ccc(Cl)cc3)o2)cc1 [Example 29, 4′-{2-[[3-Bromo-4-(difluoro-phosphono-methyl)-benzyl]-(4-chlorophenyl)-amino]-oxazol-5-yl}-biphenyl-2-carboxylic acid] | – | 100 to 500 nM
O=C(O)c1ccccc1-c1ccc(-c2cnc(N(Cc3ccc(C(F)(F)P(=O)(O)O)c(Cl)c3)c3ccc(Cl)cc3)o2)cc1 [Example 30, 4′-{2-[[3-Chloro-4-(difluoro-phosphono-methyl)-benzyl]-(4-chlorophenyl)-amino]-oxazol-5-yl}-biphenyl-2-carboxylic acid] | – | 100 to 500 nM
CC(C)(C)C(=O)OCOP(=O)(OCOC(=O)C(C)(C)C)C(F)(F)c1ccc(CN(c2ccc(F)cc2)c2ncc(-c3ccc(S(C)(=O)=O)cc3)o2)cc1Br [Example 35, 2,2-Dimethyl-propionic acid {[2-bromo-4-({(4-fluoro-phenyl)-[5-(4-methanesulfonylphenyl)-oxazol-2-yl]-amino}-methyl)-phenyl]-difluoro-methyl}-(2,2-dimethyl-propionyloxymethoxy)-phosphinoyloxymethyl ester] | – | 10000 to 100000 nM
O=P(O)(O)C(F)(F)c1ccc(CN(c2ccc(F)cc2)c2ncc(-c3ccc(-c4nn[nH]n4)cc3)o2)cc1Br [Example 38, ({2-Bromo-4-[((4-fluoro-phenyl)-{5-[4-(2H-tetrazol-5-yl)-phenyl]-oxazol-^2-yl}-amino)-methyl]-phenyl}-difluoro-methyl)-phosphonic acid] | – | < 100 nM
COCCCN(Cc1ccc(C(F)(F)P(=O)(O)O)c(Br)c1)c1ncc(-c2ccc(S(C)(=O)=O)cc2)o1 [[(2-Bromo-4-{[[5-(4-methanesulfonyl-phenyl)-oxazol-2-yl]-(3-methoxy-propyl)-amino]-methyl}-phenyl)-difluoro-methyl]-phosphonic acid] | – | 100 to 500 nM
COP(=O)(O)C(F)(F)c1ccc(CN(c2ccc(Cl)c(Cl)c2)c2ncc(-c3ccc(S(C)(=O)=O)cc3)o2)cc1Br [{[2-Bromo-4-({(3,4-dichloro-phenyl)-[5-(4-methanesulfonyl-phenyl)-oxazol-2-yl]-amino}-methyl)-phenyl]-difluoro-methyl]-phosphonic acid monomethyl ester] | 10000 to 100000 nM | –
CCCCCCCCCCCCCCCCOCCCOP(=O)(O)C(F)(F)c1ccc(CN(c2ccc(Cl)c(Cl)c2)c2ncc(-c3ccc(S(C)(=O)=O)cc3)o2)cc1Br [{[2-Bromo-4-({(3,4-dichloro-phenyl)-[5-(4-methanesulfonyl-phenyl)-oxazol-2-yl]-amino}-methyl)-phenyl]-difluoro-methyl}-phosphonic acid mono-(3-hexadecyloxy-propyl) ester] | – | 1000 to 10000 nM

Second part, the compound after the results:

IC50 (Table 1) | IC50 (Table 2) | Compound
– | < 100 nM | CS(=O)(=O)c1ccc(-c2cnc(N(Cc3ccc(C(F)(F)P(=O)(O)O)c(Br)c3)c3ccc(F)cc3)o2)cc1 [Example 32, {[2-Bromo-4-({(4-fluoro-phenyl)-[5-(4-methanesulfonyl-phenyl)-oxazol-2-yl]-amino}-methyl)-phenyl]-difluoro-methyl}-phosphonic acid]
– | 10000 to 100000 nM | CC(C)OC(=O)OC(C)OP(=O)(O)C(F)(F)c1ccc(CN(c2ccc(Cl)c(Cl)c2)c2ncc(-c3ccc(S(C)(=O)=O)cc3)o2)cc1Br (centres unmarked) [Example 33, {[2-Bromo-4-({(3,4-dichloro-phenyl)-[5-(4-methanesulfonyl-phenyl)-oxazol-2-yl]-amino}-methyl)-phenyl]-difluoro-methyl}-phosphonic acid mono-(1-isopropoxycarbonyloxy-ethyl) ester]
– | 100 to 500 nM | CCOC(=O)C(C)NP(=O)(O)C(F)(F)c1ccc(CN(c2ccc(Cl)c(Cl)c2)c2ncc(-c3ccc(S(C)(=O)=O)cc3)o2)cc1Br [Example 34, {[2-Bromo-4-({(3,4-dichloro-phenyl)-[5-(4-methanesulfonyl-phenyl)-oxazol-2-yl]-amino}-methyl)-phenyl]-difluoro-methyl}-phosphonic acid mono-(L-alanylethyl ester) amidate]
– | 100 to 500 nM | NC(=O)c1ccc(-c2cnc(N(Cc3ccc(C(F)(F)P(=O)(O)O)c(Br)c3)c3ccc(F)cc3)o2)cc1 [Example 37, [(2-Bromo-4-{[[5-(4-carbamoyl-phenyl)-oxazol-2-yl]-(4-fluoro-phenyl)-amino]-methyl}-phenyl)-difluoro-methyl]-phosphonic acid]
10000 to 100000 nM | – | CS(=O)(=O)c1ccc(-c2cnc(N(Cc3ccc(OCC(=O)O)c(Br)c3)c3ccc(Cl)c(Cl)c3)o2)cc1 [[2-Bromo-4-({(3,4-dichloro-phenyl)-[5-(4-methanesulfonyl-phenyl)-oxazol-2-yl]-amino}-methyl)-phenoxy]-acetic acid]
10000 to 100000 nM | – | CS(=O)(=O)c1ccc(-c2cnc(N(Cc3ccc(C(F)(F)C(=O)O)cc3)c3ccc(Cl)c(Cl)c3)o2)cc1 [[4-({(3,4-Dichloro-phenyl)-[5-(4-methanesulfonyl-phenyl)-oxazol-2-yl]-amino}-methyl)-phenyl]-difluoro-acetic acid]
– | 100 to 500 nM | COc1cccc(CN(Cc2ccc(C(F)(F)P(=O)(O)O)c(Br)c2)c2ncc(-c3ccc(S(C)(=O)=O)cc3)o2)c1 [[(2-Bromo-4-{[[5-(4-methanesulfonyl-phenyl)-oxazol-2-yl]-(3-methoxy-benzyl)-amino]-methyl}-phenyl)-difluoro-methyl]-phosphonic acid]
– | 500 to 1000 nM | COc1ccccc1N(Cc1ccc(C(F)(F)P(=O)(O)O)c(Cl)c1)c1ncc(-c2ccc(S(C)(=O)=O)cc2)o1 [[(2-Chloro-4-{[[5-(4-methanesulfonyl-phenyl)-oxazol-2-yl]-(2-methoxy-phenyl)-amino]-methyl}-phenyl)-difluoro-methyl]-phosphonic acid]
